Assay results published in patent publication US20110300199A1, “PEPTIDES USED IN THE TREATMENT AND/OR CARE OF THE SKIN, MUCOUS MEMBRANES AND/OR SCALP AND THEIR USE IN COSMETIC OR PHARMACEUTICAL COMPOSITIONS” (LIPOTEC, S.A., priority 2009, published 2011).
Non-standard residues stand in square brackets, D forms with d. Phg = N[C@H](C(=O)O)c1ccccc1

How the values were obtained:
[1] = target: T1, elastase (Sus scrofa, UniProt P00772); experiment: Elastase inhibition assay (EnzChek Elastase Assay Kit, DQ Elastin substrate); assay type: biochemical; details: peptides at 0.1 mM, pre-incubated 1 hour with 0.4 unit/mL elastase; DQ Elastin 25 μg/mL, 2 h; normalized to baseline
T1 construct: purchased Molecular Probes
T1 sequence (P00772 27-266): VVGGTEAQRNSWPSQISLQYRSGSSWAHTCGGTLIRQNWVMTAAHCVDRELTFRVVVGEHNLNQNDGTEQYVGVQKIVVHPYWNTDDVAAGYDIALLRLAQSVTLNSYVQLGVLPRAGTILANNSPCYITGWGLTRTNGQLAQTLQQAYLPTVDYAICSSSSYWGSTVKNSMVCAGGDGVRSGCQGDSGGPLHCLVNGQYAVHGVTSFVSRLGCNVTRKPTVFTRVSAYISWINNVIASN
Experimental: The peptides were resuspended in water in the presence of 0.5% DMSO. The assay was conducted on black microplates with 96 wells using the EnzChek® Elastase Assay Kit (Molecular Probes). For this purpose, the peptides were pre-incubated at 0.1 mM for 1 hour with 0.4 unit/mL of elastase at room temperature with moderate stirring, after which the conjugated substrate was added to fluorescein (DQ™ Elastin) at a final concentration of 25 μg/mL and reactions were incubated for 2 h at room temperature with stirring and protected from light. The substrate, whose fluorescence is inhibited, is digested by elastase to release fluorescent fragments which are monitored by fluorescence with a FLUOstar galaxy reader (BMG LabTechnologies) using 485 nm filters for excitation and 530 nm filters for emission.
Inhibition values were normalized with respect to baseline values of average inhibition.

[2] = tested on: Human dermal fibroblasts; experiment: Collagen synthesis stimulation assay (secreted Collagen Type I by ELISA); assay type: cell-based; details: peptides at 15 μg/ml, 48 h, medium analysed by ELISA; normalized to vehicle negative control
Experimental: Human dermal fibroblasts were grown until confluence in MI06 medium supplemented with specific growth factors for fibroblasts. Then, they were strypsinized and seeded at 5×10^4 cells/well in 24-well plates. After 24 h of incubation at 37° C. in 5% CO2 atmosphere, fresh medium was added with scalar dilutions of the peptides at 15 μg/ml or with vehicle as negative control. Cells were incubated for 48 additional hours, after which medium was collected.
The analysis of the amount of secreted Collagen Type I was performed by means of an ELISA assay. Briefly, 96-well plated were coated with 50 μL per well of the previously collected medium and allowed to adsorb overnight at 4° C. in a humidified atmosphere. Then the plates were washed 3 times with PBS (+0.05% Tween-20) and blocked for 1 h with 3% BSA. After blocking, the plates were treated with an anti-Collagen Type I antibody (1:1000 in PBS, 0.05% Tween-20, 1% BSA) for 2 h. After this incubation, the secondary antibody (goat anti-mouse IgG-HRP antibody, Molecular Probes, 1:1000 in PBS, 0.05% Tween-20, 1% BSA) was added. Plates were incubated with […] substrate for 30 min and the reaction was stopped by adding 3 M H2SO4. Absorbance at 490 nm was read using a microplate reader and collagen concentration determined using a linear regression standard curve for Collagen Type I. Values were normalized in respect to the collagen values for the negative control experiment and the increase in the Collagen Type I was calculated for all the treatments.

[3] = target: T2, Human neutrophil elastase (Homo sapiens, UniProt P08246); experiment: Human elastase inhibition assay (fluorogenic substrate MeOSuc-Ala-Ala-Pro-Val aminomethyl coumarin); assay type: biochemical; details: 0.2 μg/ml protease, peptides 0.05-2 mM, 1 hour preincubation, substrate 25 μg/mL, 2 h; read-out: IC50 (minimum inhibitory concentration of peptides against human elastase)
T2 sequence (P08246 30-267): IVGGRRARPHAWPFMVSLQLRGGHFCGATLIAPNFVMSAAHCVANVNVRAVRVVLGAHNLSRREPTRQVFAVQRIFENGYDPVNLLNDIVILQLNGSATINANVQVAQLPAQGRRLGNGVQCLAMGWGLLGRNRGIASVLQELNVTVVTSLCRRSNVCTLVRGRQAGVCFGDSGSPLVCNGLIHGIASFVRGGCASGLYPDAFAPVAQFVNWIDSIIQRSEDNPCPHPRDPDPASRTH
Experimental: Human neutrophil elastase was reconstituted at 5 μg/mL in 50 mM sodium acetate, 200 mm NaCl, pH 5.5 buffer. 0.2 μg/ml of protease were preincubated with the peptides at a final concentration of 0.05-2 mM in a black microplate with 96 wells for 1 hour at room temperature. After preincubation, 25 μg/mL of substrate (MeOSuc-Ala-Ala-Pro-Val aminomethyl coumarin) were added to the wells and the samples were incubated for 2 h at room temperature and protected from light. The fluorescence released by digestion of the substrate was measured with an automated multiplate fluorescence reader, exciting at 370 nm and reading at 460 nm.
The results were corrected from the baseline fluorescence value in the absence of elastase and product, and were normalized with respect to the fluorescence of the control, and the minimum inhibitory concentration for each of the peptides was determined.

Substance	Elastase inhibition percentage (% inhibition) [1] [%]	Increase of Collagen Type I by treatment with the peptides [2] [%]	IC50 [3] [µM]
Ac-L-Nle-Phg-L-Trp-Gly-OH	69.6	–	–
H-L-Arg-Phg-L-Val-Phg-OH	–	18	94
Ac-[Phg][Phg]VG-OH	64.2	–	–
Palm-L-Arg-Phg-L-Trp-Phg-NH2	57.1	–	–
Ac-L-Nle-Phg-L-Trp-Phg-OH	90.0	–	–
Ac-L-Nle-Phg-L-Val-Phg-OH	73.8	–	–
Ac-Phg-L-Trp-Phg-OH	45.1	–	–
Ac-Phg-Phg-L-Val-Phg-OH	76.1	–	–
Ac-R[Phg]VG-OH	81.4	–	–
H-L-Arg-Phg-L-Trp-Phg-OH	–	99	103
H-L-Arg-Phg-L-Val-Gly-OH	–	16	407

Second part, led by results:

Elastase inhibition percentage (% inhibition) [1] [%]	Substance	Increase of Collagen Type I by treatment with the peptides [2] [%]	IC50 [3] [µM]
62.7	Ac-L-Nle-Phg-L-Val-Gly-OH	–	–
82.3	Ac-L-Arg-Phg-L-Val-Phg-OH	–	–
65.0	Ac-Phg-Phg-L-Trp-Gly-OH	–	–
90.3	Ac-L-Arg-Phg-L-Trp-Phg-OH	–	–
84.2	Ac-Phg-Phg-L-Trp-Phg-OH	–	–
66.9	Ac-R[Phg]WG-OH	–	–
53.7	Ac-L-Arg-Phg-L-Trp-Phg-NH—(CH2)15—CH3	–	–
